From PubChem BioAssay AID1963427 (Molecular Pharmacology Branch, DTP, NCI, 2024)

Test system: 317291-083-R-J1-PDC complex spheroid growth
Test: Anticancer human tumor 317291-083-R-J1-PDC patient-derived soft tissue sarcoma cell line growth inhibition [Asc]
Conditions: for IC50: curve of first compound; for viability, T/C: stronger effect = lower value
Procedure, shortened: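 Tumor cells were grown as multicellular spheroids with stromal HUVEC and mesenchymal stem cells and treated singly or in combination. Concentrations fell in half-log steps from the clinical Cmax, or from 10 microM where none was known.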
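Also: compound exposure lasted seven days after spheroids formed for three days.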
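For viability, T/C in this document: 100% = DMSO vehicle control wells.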

IC50 (second compound 0.00316 µM): > 100 nM
IC50 (second compound 0.01 µM): > 100 nM
IC50 (second compound 0.0316 µM): > 100 nM
IC50 (second compound 0.1 µM): > 100 nM
IC50 (second compound 0.316 µM): < 0.316 nM
IC50 (second compound 1 µM): < 0.316 nM
SMILES: NC1CCC(NC2CC2c2ccccc2)CC1 (configuration not stated) + CNC(C)C(=O)NC1CN(S(=O)(=O)c2cccc(S(=O)(=O)N3CCC4CCC(C(=O)NC(c5ccccc5)c5ccccc5)N4C(=O)C(NC(=O)C(C)NC)C3)c2)CCC2CCC(C(=O)NC(c3ccccc3)c3ccccc3)N2C1=O
viability, T/C (second compound 0.00316 µM, first compound 0.000316 µM): 83.2%
viability, T/C (second compound 0.00316 µM, first compound 0.001 µM): 88.8%
viability, T/C (second compound 0.00316 µM, first compound 0.00316 µM): 84.5%
viability, T/C (second compound 0.00316 µM, first compound 0.01 µM): 96%
viability, T/C (second compound 0.00316 µM, first compound 0.0316 µM): 80.5%
viability, T/C (second compound 0.00316 µM, first compound 0.1 µM): 74.5%
viability, T/C (second compound 0.01 µM, first compound 0.000316 µM): 93%
viability, T/C (second compound 0.01 µM, first compound 0.001 µM): 80.6%
viability, T/C (second compound 0.01 µM, first compound 0.00316 µM): 86.9%
viability, T/C (second compound 0.01 µM, first compound 0.01 µM): 93.7%
viability, T/C (second compound 0.01 µM, first compound 0.0316 µM): 82.3%
viability, T/C (second compound 0.01 µM, first compound 0.1 µM): 76.7%
viability, T/C (second compound 0.0316 µM, first compound 0.000316 µM): 102%
viability, T/C (second compound 0.0316 µM, first compound 0.001 µM): 73.7%
viability, T/C (second compound 0.0316 µM, first compound 0.00316 µM): 77%
viability, T/C (second compound 0.0316 µM, first compound 0.01 µM): 70.1%
viability, T/C (second compound 0.0316 µM, first compound 0.0316 µM): 89.5%
viability, T/C (second compound 0.0316 µM, first compound 0.1 µM): 57.4%
viability, T/C (second compound 0.1 µM, first compound 0.000316 µM): 67.5%
viability, T/C (second compound 0.1 µM, first compound 0.001 µM): 52%
viability, T/C (second compound 0.1 µM, first compound 0.00316 µM): 69.1%
viability, T/C (second compound 0.1 µM, first compound 0.01 µM): 49%
viability, T/C (second compound 0.1 µM, first compound 0.0316 µM): 69.3%
viability, T/C (second compound 0.1 µM, first compound 0.1 µM): 64.7%
viability, T/C (second compound 0.316 µM, first compound 0.000316 µM): 43.2%
viability, T/C (second compound 0.316 µM, first compound 0.001 µM): 56.5%
viability, T/C (second compound 0.316 µM, first compound 0.00316 µM): 48%
viability, T/C (second compound 0.316 µM, first compound 0.01 µM): 54%
viability, T/C (second compound 0.316 µM, first compound 0.0316 µM): 61.9%
viability, T/C (second compound 0.316 µM, first compound 0.1 µM): 44%
viability, T/C (second compound 1 µM, first compound 0.000316 µM): 37.5%
viability, T/C (second compound 1 µM, first compound 0.001 µM): 39.7%
viability, T/C (second compound 1 µM, first compound 0.00316 µM): 34.5%
viability, T/C (second compound 1 µM, first compound 0.01 µM): 36.8%
viability, T/C (second compound 1 µM, first compound 0.0316 µM): 46.1%
viability, T/C (second compound 1 µM, first compound 0.1 µM): 36.8%
